# According to patent US20090176857A1, “Use of Organic Compounds” (priority 2005, published 2009):
# Tests used:
# [1] = system: women with IBS-C (Rome II criteria) and IBS-M (modification of Rome II); test: Randomized, double-blind, placebo-controlled, multicenter study, 4 weeks treatment, in patients with IBS-C and IBS-M; type: in vivo; conditions: for days/week with no BMs (mean) / stool consistency score using a 7-patient scale (mean) / days/wk with straining (mean) / weekly BM frequency (mean): p<0.05
# Procedure: Evaluation of the effect of tegaserod (T) on multiple symptoms in women with mixed/alternating bowel habits.
# METHODS: A randomized, double-blind, placebo-controlled, multicenter study was performed in patients with IBS-C (based on Rome II criteria) and IBS-M (modification of Rome II). The primary efficacy variable was the patients' assessment of satisfactory relief over 4 weeks treatment with T 6 mg bid or Placebo (P). The proportion of patients reporting satisfactory relief of 4 weeks (75% rule) and improvement during each of the 4 weeks in individual IBS symptoms were also assessed. Treatments were compared using a generalized linear model with logit link.
# RESULTS: 661 women were randomized (IBS-C 337; IBS-M 324). Baseline symptom assessment clearly distinguished between the IBS-C and the IBS-M cohorts. Statistically significant differences were found between the two cohorts in bowel movement (BM) frequency, stool consistency and straining. T provided statistically significant improvement in satisfactory relief of IBS symptoms over a 4-week treatment (odds ratio 1.75; 95% CI: 1.35, 2.25; p-value<0.001) for the IBS-C and IBS-M cohorts. […] Adverse event discontinuations were low (IBS-C: T 1.2% v P 2.4% and IBS-M: T 2.5% v P 3.6%). Most frequent AEs (with discontinuations) were diarrhea (1.1%), headache (0.6%) and nausea (0.3%). No clinically significant diarrhea or colitis of any type was reported.
# [2] = system: patients with constipation predominant and alternating forms of IBS; conditions: literature abstract; cited from earlier work
structure (smiles),measurement,setting,value
"[H]/N=C(/NCCCCC)N/N=C/c1c[nH]c2ccc(OC)cc12 [T, tegaserod]","satisfactory relief of IBS symptoms over a 4-week treatment, odds ratio","[1]; IBS-C and IBS-M cohorts, T 6 mg bid vs placebo, 95% CI: 1.35, 2.25, p<0.001",1.75
same,percentage of patients experiencing satisfactory relief of IBS symptoms (75% rule),"[1]; IBS-C cohort, T 6 mg bid, 4 weeks, placebo 28.9%, p=0.008",43.3%
same,days/week with no BMs (mean),"[1]; IBS-C cohort, T 6 mg bid, placebo 2.18",2.31 days/week
same,Adverse event discontinuations,"[1]; IBS-C cohort, T 6 mg bid, placebo 2.4%",1.2%
same,stool consistency score using a 7-patient scale (mean),"[1]; IBS-C cohort, T 6 mg bid, placebo 2.89",3.53
same,days/wk with straining (mean),"[1]; IBS-C cohort, T 6 mg bid, placebo 3.55",3.08 days/wk
same,weekly BM frequency (mean),"[1]; IBS-C cohort, T 6 mg bid, placebo 6.06",6.88
same,percentage of patients experiencing satisfactory relief of IBS symptoms (75% rule),"[1]; IBS-M cohort, T 6 mg bid, 4 weeks, placebo 36.3%, p=0.010",52.3%
same,days/week with no BMs (mean),"[1]; IBS-M cohort, T 6 mg bid, placebo 1.68",1.39 days/week
same,days/wk with straining (mean),"[1]; IBS-M cohort, T 6 mg bid, placebo 2.87",2.42 days/wk
same,stool consistency score using a 7-patient scale (mean),"[1]; IBS-M cohort, T 6 mg bid, placebo 3.49",3.95
same,Adverse event discontinuations,"[1]; IBS-M cohort, T 6 mg bid, placebo 3.6%",2.5%
same,weekly BM frequency (mean),"[1]; IBS-M cohort, T 6 mg bid, placebo 8.34",9.78
same,treating the overall symptoms of IBS in patients with a mixed or alternating bowel habit (conclusion),"[1]; IBS-M, T 6 mg bid, 4 weeks",effective and safe
same,Most frequent AEs (with discontinuations): diarrhea,[1]; treatment group not stated,1.1%
same,Most frequent AEs (with discontinuations): headache,[1]; treatment group not stated,0.6%
same,Most frequent AEs (with discontinuations): nausea,[1]; treatment group not stated,0.3%
same,safety and tolerability profile,[2],favourable safety and tolerability profile
